# Measurements: patent US5017618A, “Labile derivatives of ketone analogs of 3-substituted-1-alkylamino-2-propanols and their use as beta-adrenergic blockers” (priority 1989, dated 1991)
# How the values were obtained:
# iris-ciliary body = conditions: topical application to the eye; cited from earlier work
# [1] = In vivo distribution-metabolism in rat's blood
# Method: A group of seven adult male Sprague-Dawley rats weighing 150-250 g was used. […] After 1, 3, 5, 20, 40 and 60 minutes, one mL of blood was withdrawn from the jugular vein and dropped immediately into a tared tube containing 1 mL of ice-cold acetonitrile. The tubes were vigorously shaken, centrifuged, decanted and analyzed for propranolol 1a and propranolone oxime 5a by HPLC. Quantitation was done by using a calibration curve obtained by addition of known amounts of propranolol oxime HCl 6a to blood obtained from a control rat pretreated with saline solution.
# A high pressure liquid chromatography (HPLC) method was developed for the assay of the β-blockers and their ketoxime analogs in biological fluids. […] An ASI reverse phase chrompack C18 column, operated at ambient temperature, was used for all separation. The mobile phase used for separation of propranolol 1a and propranolone oxime 5a consisted of water (90 mL), 1-heptanesulfonic acid (1g), 0.1M acetic acid (10 mL), 0.1M triethanolamine (100 mL) and methanol (799 mL).
# [2] = tested on: ocular tissues of rabbits; experiment: In vivo distribution-metabolism in ocular tissues of rabbits; conditions: for Tissue concentration: after topical propranolone oxime HCl 6a 1%
# Method: (§1) Adult male New Zealand albino rabbits weighing 2.5-3.5 kg were used. Standard doses of 100 μl of 1% solution of the drugs in saline solution were administered topically to both eyes of each rabbit. After appropriate time intervals (30, 60 and 120 minutes), the animals were sacrificed. Aqueous humor was obtained by making a single puncture at the limbus using a 25 g×5/8" needle attached to 1 cm^3 syringe. Then the cornea and the iris-ciliary body were isolated. The tissues were pooled and homogenized using a Tekmar SDT tissuemizer in ice cold perchloric acid (0.05M) which contained 0.05% sodium metabisulfite as antioxidant. Samples were then rehomogenized in CH3 OH to prepare 10% homogenates, transferred to micro-filters and centrifuged for 20 minutes at 10000 r/minute to precipitate proteins. Aqueous humor was analyzed as such without any further dilution. Aliquots of 5-20 μl of the 10% tissue homogenate samples were analyzed by HPLC.
# [3] = as above; conditions: rabbit, topical or ocular, 1 %, Tissue concentration
# Method: as §1
# rabbit iris-ciliary body = experiment: Stereospecificity of enzymatic reduction in iris-ciliary body (chiral derivatization HPLC); format: in vivo; conditions: iris-ciliary body of rabbit treated with the oxime
# Source text: Finally, it was shown that the enzymatic reduction of the ketone is stereospecific. The extract residue from the iris-ciliary body of rabbit treated with 1-(isopropylamino)-3-(1-naphthyloxy)-2-propranolone oxime was reacted with the chiral reagent, 2,3,4,6-tetra-O-acetyl-β-D-glucoppyranosyl isocyanate, in acetonitrile and analyzed by the HPLC procedure of Sedman et al, J. Chromatogr. 278, 199-203, 1983 (Supelcosil LC-18 reversed-phase column of 7.5 cm×4.6 mm with 3 μm particles, mobile phase: 60% acetonitrile in 0.02M aqueous monobasic ammonium phosphate solution, 1 mL/min flow rate, UV detection at 254 nm).
# [4] = cited from earlier work
smiles,measurement,setting,value
CNCC(=O)c1ccc(O)c(O)c1 [adrenalone],conversion to adrenaline in the eye,iris-ciliary body,not adrenalone itself can be converted via a reduction-hydrolysis sequence to deliver adrenaline
"CC(C)NCC(COc1cccc2ccccc12)=NO [propranolone oxime 5a, 1-(Isopropylamino)-3-(1-naphthyloxy)-2-propanone oxime]",metabolite in blood,"[1]; after i.v. oxime, disappeared 5 minutes after injection",another more polar compound was detected
same,half-life,"[1]; blood, iv, 6 mg/kg",7.64 ± 0.55 min
same,presence of oxime in blood,[1]; one hour after i.v. administration,completely disappeared from the blood
same,Tissue concentration,"[2]; aqueous humor, 120 min.",0.00 ± 0.00 mcg/g tissue
same,Tissue concentration,"[2]; cornea, 120 min.",0.00 ± 0.00 mcg/g tissue
same,Tissue concentration,"[2]; iris-ciliary body, 60 min.",0.00 ± 0.00 mcg/g tissue
same,Tissue concentration,"[2]; iris-ciliary body, 120 min.",0.00 ± 0.00 mcg/g tissue
same,concentration at 0.5 h,[3]; aqueous humor,820 ± 90 ng/g
same,concentration at 1 h,[3]; aqueous humor,800 ± 60 ng/g
same,concentration at 0.5 h,[3]; cornea,23800 ± 4910 ng/g
same,concentration at 1 h,[3]; cornea,16400 ± 5800 ng/g
same,concentration at 0.5 h,[3]; iris-ciliary body,7790 ± 1100 ng/g
same,stereospecificity: enantiomer of propranolol formed,rabbit iris-ciliary body,The sole presence of the S-(-)-enantiomer of 1-(isopropylamino)-3-(1-naphthyloxy)-2-propanol (propranolol) was established
CC(C)(C)NC[C@H](O)COc1nsnc1N1CCOCC1 [timolol],side effects secondary to topical ocular administration,[4],"a vast number of serious cardiovascular, respiratory, CNS and ocular side effects"
same,detection of parent β-adrenergic antagonist in eye compartments,"[2]; after ophthalmic 6b, low dose level used",could not be found in any of the eye compartments
